Test results reported in PMC9065348 (Frontiers in Pharmacology, 2022).
Like-named read-outs stand apart in the source and are kept apart here.

Columns and labels:
CYP3A4 = CYP3A4 (Homo sapiens, UniProt P08684); conditions: Human liver microsomes, cited from earlier work
CYP2C9 = biological target: T1, CYP2C9 (Homo sapiens, UniProt P11712); conditions: Human liver microsomes, cited from earlier work
T1 construct: respectively, were mixed with human liver microsomes; tissue In Vitro Technologies (Noble Park North, VIC, Australia); host or cells: human liver microsomes
T1 sequence (P11712 whole entry): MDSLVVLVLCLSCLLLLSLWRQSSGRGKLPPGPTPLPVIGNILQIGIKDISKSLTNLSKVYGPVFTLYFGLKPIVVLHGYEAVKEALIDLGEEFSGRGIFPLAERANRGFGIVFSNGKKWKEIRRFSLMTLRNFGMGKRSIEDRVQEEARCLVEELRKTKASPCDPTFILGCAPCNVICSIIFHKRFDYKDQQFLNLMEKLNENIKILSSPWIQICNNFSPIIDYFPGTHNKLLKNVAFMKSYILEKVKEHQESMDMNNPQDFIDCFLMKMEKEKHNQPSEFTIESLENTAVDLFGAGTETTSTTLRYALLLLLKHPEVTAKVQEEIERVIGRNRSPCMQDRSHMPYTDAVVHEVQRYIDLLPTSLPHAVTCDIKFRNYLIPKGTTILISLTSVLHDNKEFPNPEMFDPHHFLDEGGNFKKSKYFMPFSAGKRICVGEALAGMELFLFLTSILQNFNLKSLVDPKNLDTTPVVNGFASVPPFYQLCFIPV

[1] = tested on: hypertension rat model established by L-NAME; assay: Antihypertensive efficacy (tail artery blood pressure) in L-NAME hypertension rat model; format: in vivo, Wistar rats; conditions: model group
Description: A total of 48 Wistar rats were treated with L-NAME (60 mg/kg·d^-1) intragastrically for 4 weeks ([[…] al., 2003]; [[…] et al., 2002]; [Ahad et al., 2020a]). Systolic blood pressure (SBP) ≥140 mmHg was considered to be a successful hypertension model and was used to maintain L-NAME treatment until animal death. The blood pressure measurement method was performed as described in previous literature studies and the blood pressure of each rat was determined by the average of 5 measurements by a non-invasive rat tail sphygmomanometer (BP-2006A, Beijing Softron Biotechnology Co., Ltd.) ([Gillis et al., 2020]; [Dias et al., 2021]). This experimental protocol was approved by the Animal Care and Use Committee of Shanghai University of Traditional Chinese Medicine. A total of 36 hypertensive rats and 6 normal rats were included in this experiment. […] A total of 6 normal rats were assigned to a blank group without any treatment. Following the treatment of the rats for 2 weeks, the blood pressure of their tail artery was measured.

[2] = 4 weeks of L-NAME 60 mg/kg/d intragastric

Chain of CYP3A4 (P08684 whole entry): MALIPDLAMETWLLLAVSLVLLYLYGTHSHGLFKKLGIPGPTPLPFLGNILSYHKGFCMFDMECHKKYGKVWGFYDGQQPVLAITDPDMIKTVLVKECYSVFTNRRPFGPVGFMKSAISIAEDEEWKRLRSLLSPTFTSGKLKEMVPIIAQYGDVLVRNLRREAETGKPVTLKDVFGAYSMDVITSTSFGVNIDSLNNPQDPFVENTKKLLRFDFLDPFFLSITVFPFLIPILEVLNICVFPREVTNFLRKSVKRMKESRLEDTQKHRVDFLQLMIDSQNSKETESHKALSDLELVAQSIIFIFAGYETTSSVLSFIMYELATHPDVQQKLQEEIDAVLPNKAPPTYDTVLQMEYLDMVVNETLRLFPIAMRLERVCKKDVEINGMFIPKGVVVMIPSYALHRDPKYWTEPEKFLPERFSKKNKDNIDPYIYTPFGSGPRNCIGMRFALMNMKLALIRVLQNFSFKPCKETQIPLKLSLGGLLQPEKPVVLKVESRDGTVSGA

## CC(C)=CCC[C@](C)(O[C@@H]1O[C@H](CO)[C@@H](O)[C@H](O)[C@H]1O)[C@H]1CC[C@]2(C)[C@@H]1[C@H](O)C[C@@H]1[C@@]3(C)CC[C@H](O)C(C)(C)[C@@H]3[C@@H](O[C@@H]3O[C@H](CO)[C@@H](O)[C@H](O)[C@H]3O[C@@H]3O[C@@H](C)[C@H](O)[C@@H](O)[C@H]3O)C[C@]12C [Re, Ginsenoside Re]
CYP3A4; ref Hao et al. (2008)
  Effects on CYP3A4: Inhibition
CYP2C9; ref Hao et al. (2008)
  Effects on CYP2C9: Inhibition

## COC(=O)[C@@H](N)CCCNC(N)=N[N+](=O)[O-] [L-NAME, N (omega)-nitro-L-arginine methyl ester]
[1]; [2]
  increase in DBP: 34.83 ± 8.82 mmHg
  increase in MAP: 36.00 ± 6.10 mmHg
  increase in SBP: 37.83 ± 8.52 mmHg
[1]; 6 weeks of continuous L-NAME
  average increase in DBP: 42.33 ± 15.34 mmHg
  average increase in MAP: 46.00 ± 13.11 mmHg
  average increase in SBP: 50.50 ± 6.09 mmHg

## CC(C)=CCC[C@](C)(O[C@@H]1O[C@H](CO[C@@H]2O[C@H](CO)[C@@H](O)[C@H](O)[C@H]2O)[C@@H](O)[C@H](O)[C@H]1O)[C@H]1CC[C@]2(C)[C@@H]1[C@H](O)C[C@@H]1[C@@]3(C)CC[C@H](O[C@@H]4O[C@H](CO)[C@@H](O)[C@H](O)[C@H]4O[C@@H]4O[C@H](CO)[C@@H](O)[C@H](O)[C@H]4O)C(C)(C)[C@@H]3CC[C@]12C [Ginsenoside Rb1]
CYP3A4; ref Hao et al. (2008)
  Effects on CYP3A4: Inhibition
CYP3A4; ref He and Edeki, (2004)
  Effects on CYP3A4: Inhibition
CYP2C9; ref Hao et al. (2008)
  Effects on CYP2C9: Inhibition
CYP2C9; ref He and Edeki, (2004)
  Effects on CYP2C9: Inhibition

## CC(C)=CCC[C@](C)(O[C@@H]1O[C@H](CO)[C@@H](O)[C@H](O)[C@H]1O)[C@H]1CC[C@]2(C)[C@@H]1[C@H](O)C[C@@H]1[C@@]3(C)CC[C@H](O)C(C)(C)[C@@H]3[C@@H](O[C@@H]3O[C@H](CO)[C@@H](O)[C@H](O)[C@H]3O)C[C@]12C [Rg1, Ginsenoside Rg1]
CYP3A4; ref Hao et al. (2008)
  Effects on CYP3A4: Inhibition
CYP2C9; ref Hao et al. (2008)
  Effects on CYP2C9: Inhibition

## COc1cc2c(c(OC)c1OC)-c1c(cc(OC)c(OC)c1OC)C[C@](C)(O)[C@@H](C)C2 [schizandrin]
CYP3A4; ref Cao et al. (2009)
  Effects on CYP3A4: Inhibition
